Tested on: orthotopic CRC transplanted tumors
Experiment: orthotopic CRC transplanted tumors in mice
Type: in vivo
Details: YD1701 1 mg·kg^−1, 5-FU 10 mg·kg^−1, intraperitoneal, two weeks; three groups compared; FIG. 20
Experimental: To further assess the therapeutic potential of the YD1701, the inhibiting effects of the YD1701 and 5-FU(5-fluorouracil) on orthotopic CRC transplanted tumors in the mice are compared, and the experimental process is shown in FIG. 17. On the 20th day after the colons of mice of YD1701 are implanted with tumor micro-tissue blocks orthotopically, and the formation of the orthotopic transplanted tumors is determined by an in-vivo imaging system. […] Then, the determined mice with the orthotopic transplanted tumors are divided into three groups and subjected to intraperitoneal injection of YD1701 (1 mg·kg^−1), normal saline+DMSO and 5-FU (10 mg·kg^−1) for treatment for two weeks. The total survival time of the three groups of mice with the orthotopic transplanted tumors is compared.

O=c1[nH]cc(F)c(=O)[nH]1 [5-FU, 5-fluorouracil]
volume sizes of the tumors in situ in the colons: no obvious difference
